Experimental data published in US8808664B2, “Lipidated glycoprotein particles and methods of use” (Ramot at Tel-Aviv University Ltd., priority 2004, dated 2014).

Columns and labels:
[1] = Efficiency of entrapment of drugs/bioactive agents in collagen disks or particles; type: physicochemical
Experimental: Efficiency of entrapment of drugs/bioactive agents in the collagen disks or particles, and kinetics of drug efflux for small molecular weight drugs was determined utilizing absorption spectra (mostly in an ELISA plate reader), fluorescence emission spectra (mostly in a fluorescence plate reader), and HPLC. Half-life data was processed according to a theoretical framework previously developed for liposomes (Margalit et al., 1991), incorporated herein in its entirety) which yields the rate constant for drug efflux.

[2] = test system: glioma C6 line; test: Treatment of multi-drug resistant cell lines, cell survival by MTT assay; type: cell-based, rat; details: 24-28 hours post-treatment
Experimental: (§1) FIGS. 6A-6C show results for three cell lines, C26 (FIG. 6A), HT29 (FIG. 6B) and […], in terms of response to chemotherapeutic drugs encapsulated in collagen particles. The bars represent 60-64 repeats and the error bars represent the standard deviation. Three asterisks (***) indicate p<0.001.
(§2) Cells were seeded onto 96 well plates, and the experiment was initiated at semi-confluency, usually 24 hours post seeding. For the test system, cells were given a selected dose of the drug of choice, which was entrapped in a collagen particle formulation (washed of excess free drug prior to use). The controls were given the same dose of free drug, and a dose of drug-free collagen particles at a dose similar to that of the test system. Cell survival was determined 24-28 hours post-treatment, using the MTT assay (Nutt, et al. 2000; and Larsen et al., 2000).

[3] = test system: HT29 colon adenocarcimona cell line; test: as above; type: cell-based, human; details: 24-28 hours post-treatment
Experimental: as §1, §2

[4] = test system: C26 colon adenocarcimona cell line; test: as above; type: cell-based, mouse; details: 24-28 hours post-treatment
Experimental: as §1, §2

[5] = Collagen Disks (1-20 mm in a diameter)
[6] = Collagen particles (0.5-10 μm in diameter)

| Molecule | % Entrapment [1, 5] | % Entrapment [1, 6] | cell survival / response (MTT), FIGS. 6A-6C [2] | cell survival / response (MTT), FIGS. 6A-6C [3] | cell survival / response (MTT), FIGS. 6A-6C [4] |
| --- | --- | --- | --- | --- | --- |
| O=C(N[C@H](CO)[C@H](O)c1ccc([N+](=O)[O-])cc1)C(Cl)Cl [CAM, chloramphenicol] | 89.5 ± 1.4% | 94.1 ± 0.8% | – | – | – |
| COc1cccc2c1C(=O)c1c(O)c3c(c(O)c1C2=O)C[C@@](O)(C(=O)CO)C[C@@H]3O[C@H]1C[C@H](N)[C@H](O)[C@H](C)O1 [DOX, doxorubicin] | 78.4 ± 2.4% | 71.9 ± 0.4% | typical for the inherent form of MDR | typical for the inherent form of MDR | typical for the inherent form of MDR |
| Insulin: high molecular weight drug entrapped in collagen particles and disks | 89.4 ± 2.3% | 91.2 ± 0.7% | – | – | – |
| CO[C@@]12[C@H](COC(N)=O)C3=C(C(=O)C(C)=C(N)C3=O)N1C[C@@H]1N[C@@H]12 [MMC, Mitomycin C] | 80.2 ± 1.0% | 67.3 ± 2.1% | – | – | – |
